Data taken from paper PMC3852541, “Construction of an in vitro bypassed pyruvate decarboxylation pathway using thermostable enzyme modules and its application to N-acetylglutamate production” (Microbial Cell Factories, 2013).

Biological target: T1, TtADDH (Thermus thermophilus, UniProt Q53WH9)
T1 construct: gene TTHB247; full-length from RIKEN T. thermophilus HB8 expression plasmid set; E. coli Rosetta2 (DE3), heat-treated lysate (70 C, 30 min)
Assay: NAD+ reduction at […] nm; HPLC of products
Assay type: biochemical
Conditions: 0.2 mM NAD+, 0.2 mM CoA, 0.2 mM acetaldehyde; 50 mM HEPES-NaOH pH 7.0, 100 mM KCl, 10 mM MgCl2, 50 C

T1 sequence (Q53WH9 whole entry): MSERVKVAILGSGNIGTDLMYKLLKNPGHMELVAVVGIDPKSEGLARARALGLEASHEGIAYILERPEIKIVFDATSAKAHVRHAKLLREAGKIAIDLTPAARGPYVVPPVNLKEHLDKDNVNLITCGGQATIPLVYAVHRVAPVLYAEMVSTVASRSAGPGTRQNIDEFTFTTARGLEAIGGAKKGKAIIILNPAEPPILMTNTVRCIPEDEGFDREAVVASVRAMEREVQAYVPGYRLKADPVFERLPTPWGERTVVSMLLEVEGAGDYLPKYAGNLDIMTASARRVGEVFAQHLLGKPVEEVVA

CC=O [acetaldehyde]
NAD+ reduction at 340 nm; HPLC of products: TtADDH could catalyze the oxidation of acetaldehyde in both CoA-dependent (acetyl-CoA-forming) and CoA-independent
